Measurements reported in the OligoGym collection.
“And” between values parts separate entries of the source, which are not always exact repeats. Identical values can stand only once. HELM strings list units from the 5' end as sugar, base in round brackets, then linkage (d deoxyribose, r ribose, m 2'-O-methyl, p phosphodiester). Strings are as the collection lists them; they lack the last nucleoside at the 3' end of the tested compound. [moe] = 2'-O-(2-methoxyethyl) (MOE); [sp] = phosphorothioate linkage; [m5C] = 5-methylcytosine

What follows are substances tested against SMN2 (assay: mouse, dose not given). Conditions: ASO.

Substance	3 h FOB score
RNA1{[moe](A)[sp].[moe]([m5C])[sp].[moe](T)[sp].[moe](T)[sp].[moe](T)[sp].[moe]([m5C])[sp].[moe](A)[sp].[moe](T)[sp].[moe](A)[sp].[moe](A)[sp].[moe](T)p.[moe](G)p.[moe]([m5C])p.[moe](T)p.[moe](G)[sp].[moe](G)}$$$$ (last 3' nucleoside missing)	0 score 0-7
RNA1{[moe]([m5C])[sp].[moe](A)[sp].[moe]([m5C])[sp].[moe](T)[sp].[moe](T)[sp].[moe](T)p.[moe]([m5C])p.[moe](A)[sp].[moe](T)[sp].[moe](A)[sp].[moe](A)[sp].[moe](T)[sp].[moe](G)[sp].[moe]([m5C])[sp].[moe](T)[sp].[moe](G)[sp].[moe](G)}$$$$ (last 3' nucleoside missing)	0 score 0-7
RNA1{[moe](T)[sp].[moe]([m5C])[sp].[moe](A)[sp].[moe]([m5C])[sp].[moe](T)[sp].[moe](T)[sp].[moe](T)[sp].[moe]([m5C])[sp].[moe](A)p.[moe](T)[sp].[moe](A)[sp].[moe](A)[sp].[moe](T)[sp].[moe](G)p.[moe]([m5C])[sp].[moe](T)[sp].[moe](G)}$$$$ (last 3' nucleoside missing)	3.5 score 0-7
RNA1{[moe](T)[sp].[moe]([m5C])[sp].[moe](A)[sp].[moe]([m5C])[sp].[moe](T)[sp].[moe](T)p.[moe](T)[sp].[moe]([m5C])[sp].[moe](A)[sp].[moe](T)[sp].[moe](A)[sp].[moe](A)[sp].[moe](T)[sp].[moe](G)[sp].[moe]([m5C])[sp].[moe](T)[sp].[moe](G)}$$$$ (last 3' nucleoside missing)	4 score 0-7
RNA1{[moe](A)p.[moe](T)[sp].[moe]([m5C])[sp].[moe](A)[sp].[moe]([m5C])[sp].[moe](T)[sp].[moe](T)[sp].[moe](T)[sp].[moe]([m5C])[sp].[moe](A)[sp].[moe](T)[sp].[moe](A)[sp].[moe](A)[sp].[moe](T)[sp].[moe](G)[sp].[moe]([m5C])[sp].[moe](T)[sp].[moe](G)}$$$$ (last 3' nucleoside missing)	4 score 0-7
RNA1{[moe]([m5C])[sp].[moe](T)[sp].[moe](T)[sp].[moe](T)[sp].[moe]([m5C])p.[moe](A)p.[moe](T)p.[moe](A)p.[moe](A)p.[moe](T)p.[moe](G)p.[moe]([m5C])[sp].[moe](T)[sp].[moe](G)[sp].[moe](G)}$$$$ (last 3' nucleoside missing)	0 score 0-7
RNA1{[moe](T)[sp].[moe]([m5C])[sp].[moe](A)[sp].[moe]([m5C])[sp].[moe](T)[sp].[moe](T)[sp].[moe](T)[sp].[moe]([m5C])[sp].[moe](A)[sp].[moe](T)[sp].[moe](A)[sp].[moe](A)[sp].[moe](T)[sp].[moe](G)[sp].[moe]([m5C])p.[moe](T)[sp].[moe](G)}$$$$ (last 3' nucleoside missing)	2.75 score 0-7
RNA1{[moe]([m5C])[sp].[moe](A)[sp].[moe]([m5C])[sp].[moe](T)[sp].[moe](T)[sp].[moe](T)[sp].[moe]([m5C])[sp].[moe](A)[sp].[moe](T)[sp].[moe](A)[sp].[moe](A)[sp].[moe](T)[sp].[moe](G)[sp].[moe]([m5C])[sp].[moe](T)p.[moe](G)[sp].[moe](G)}$$$$ (last 3' nucleoside missing)	0 score 0-7
RNA1{[moe](T)[sp].[moe]([m5C])[sp].[moe](A)[sp].[moe]([m5C])[sp].[moe](T)[sp].[moe](T)[sp].[moe](T)[sp].[moe]([m5C])p.[moe](A)[sp].[moe](T)[sp].[moe](A)[sp].[moe](A)[sp].[moe](T)[sp].[moe](G)[sp].[moe]([m5C])[sp].[moe](T)[sp].[moe](G)}$$$$ (last 3' nucleoside missing)	4.25 score 0-7
RNA1{[moe](T)[sp].[moe]([m5C])p.[moe](A)[sp].[moe]([m5C])p.[moe](T)[sp].[moe](T)[sp].[moe](T)[sp].[moe]([m5C])[sp].[moe](A)[sp].[moe](T)[sp].[moe](A)[sp].[moe](A)[sp].[moe](T)[sp].[moe](G)[sp].[moe]([m5C])[sp].[moe](T)[sp].[moe](G)}$$$$ (last 3' nucleoside missing)	3.75 score 0-7
RNA1{[moe](T)[sp].[moe]([m5C])[sp].[moe](A)[sp].[moe]([m5C])[sp].[moe](T)[sp].[moe](T)[sp].[moe](T)[sp].[moe]([m5C])[sp].[moe](A)[sp].[moe](T)[sp].[moe](A)[sp].[moe](A)[sp].[moe](T)[sp].[moe](G)[sp].[moe]([m5C])[sp].[moe](T)[sp].[moe](G)[sp].[moe](G)p.[moe](A)}$$$$ (last 3' nucleoside missing)	3.75 score 0-7 and 4 score 0-7 (3×)
RNA1{[moe]([m5C])[sp].[moe](A)[sp].[moe]([m5C])[sp].[moe](T)[sp].[moe](T)[sp].[moe](T)[sp].[moe]([m5C])[sp].[moe](A)p.[moe](T)p.[moe](A)[sp].[moe](A)[sp].[moe](T)[sp].[moe](G)[sp].[moe]([m5C])[sp].[moe](T)[sp].[moe](G)[sp].[moe](G)}$$$$ (last 3' nucleoside missing)	0 score 0-7
RNA1{[moe](T)[sp].[moe]([m5C])[sp].[moe](A)[sp].[moe]([m5C])[sp].[moe](T)[sp].[moe](T)[sp].[moe](T)[sp].[moe]([m5C])[sp].[moe](A)p.[moe](T)[sp].[moe](A)[sp].[moe](A)[sp].[moe](T)[sp].[moe](G)[sp].[moe]([m5C])p.[moe](T)[sp].[moe](G)}$$$$ (last 3' nucleoside missing)	3.25 score 0-7
RNA1{[moe](T)[sp].[moe]([m5C])[sp].[moe](A)[sp].[moe]([m5C])p.[moe](T)[sp].[moe](T)[sp].[moe](T)[sp].[moe]([m5C])[sp].[moe](A)[sp].[moe](T)[sp].[moe](A)[sp].[moe](A)[sp].[moe](T)[sp].[moe](G)[sp].[moe]([m5C])[sp].[moe](T)[sp].[moe](G)}$$$$ (last 3' nucleoside missing)	3.5 score 0-7
RNA1{[moe]([m5C])[sp].[moe](T)[sp].[moe](T)[sp].[moe](T)[sp].[moe]([m5C])p.[moe](A)p.[moe](T)p.[moe](A)p.[moe](A)[sp].[moe](T)[sp].[moe](G)[sp].[moe]([m5C])[sp].[moe](T)[sp].[moe](G)[sp].[moe](G)}$$$$ (last 3' nucleoside missing)	1 score 0-7
RNA1{[moe](T)[sp].[moe](T)[sp].[moe]([m5C])[sp].[moe](A)[sp].[moe]([m5C])[sp].[moe](T)[sp].[moe](T)[sp].[moe](T)[sp].[moe]([m5C])[sp].[moe](A)[sp].[moe](T)[sp].[moe](A)[sp].[moe](A)[sp].[moe](T)[sp].[moe](G)[sp].[moe]([m5C])p.[moe](T)[sp].[moe](G)}$$$$ (last 3' nucleoside missing)	1.75 score 0-7
RNA1{[moe]([m5C])[sp].[moe](A)[sp].[moe]([m5C])p.[moe](T)[sp].[moe](T)[sp].[moe](T)[sp].[moe]([m5C])[sp].[moe](A)[sp].[moe](T)[sp].[moe](A)[sp].[moe](A)[sp].[moe](T)[sp].[moe](G)[sp].[moe]([m5C])[sp].[moe](T)p.[moe](G)[sp].[moe](G)}$$$$ (last 3' nucleoside missing)	0 score 0-7
